In patent US9000022B2 (Exelixis Patent Company LLC, priority 2005, dated 2015):

System: LXRα and/or LXRβ
Test: Co-transfection assay (LXRE luciferase reporter, CV-1 cells)
Type: cell-based, human
Conditions: tested as described in Example 33; IC50 or EC50 for LXRα and/or LXRβ, isoform not specified; read-out: activity (IC50 or EC50 for LXR)
Outline: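 CV-1 cells transiently co-transfected with full-length human LXRα or LXRβ plus RXRα, an LXRE×1-Tk-luciferase reporter and a β-galactosidase control. Compounds incubated 20 h at 37 °C (≤1% DMSO; screen at 10 μM final); luciferase read after lysis. EC50/IC50 from 8-point half-log curves (4 wells per point, ≥3 experiments); efficacy relative to a reference agonist high control and DMSO.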

In the case of `CC(C)(O)c1cn(-c2ccc(-c3cccc(S(C)(=O)=O)c3)cc2)c(-c2cccc(F)c2Cl)n1` [Example 383, 2-{2-(2-chloro-3-fluorophenyl)-1-[3′-(methylsulfonyl)biphenyl-4-yl]-1H-imidazol-4-yl}propan-2-ol], the IC50 or EC50 (potency, activation or inhibition) is reported as less than 1000 nM.

With `CC(C)(O)c1cn(-c2ccc(-c3cccc(S(N)(=O)=O)c3)cc2)c(-c2ccccc2Cl)n1` [Example 384, 4′-[2-(2-chlorophenyl)-4-(1-hydroxy-1-methylethyl)-1H-imidazol-1-yl]biphenyl-3-sulfonamide] the IC50 or EC50 (potency, activation or inhibition) was 1000 to 10000 nM.

Compound `CC(C)(O)c1cn(-c2ccc(-c3cccc(S(C)(=O)=O)c3)cc2)c(-c2ccc(F)cc2)n1` [Example 385, 2-{2-(4-fluorophenyl)-1-[3′-(methylsulfonyl)biphenyl-4-yl]-1H-imidazol-4-yl}propan-2-ol] has an IC50 or EC50 (potency, activation or inhibition) of 1000 to 10000 nM.

With `CC(C)(O)c1cn(-c2ccc(-c3cccc(S(C)(=O)=O)c3)cc2F)c(-c2ccccc2Cl)n1` [Example 386, 2-{2-(2-chlorophenyl)-1-[3-fluoro-3′-(methylsulfonyl)biphenyl-4-yl]-1H-imidazol-4-yl}propan-2-ol] the IC50 or EC50 (potency, activation or inhibition) was less than 1000 nM.

In the case of `CC(C)(O)c1cn(-c2ccc(-c3cccc(S(C)(=O)=O)c3)c(F)c2)c(-c2ccccc2Cl)n1` [Example 387, 2-{2-(2-chlorophenyl)-1-[2-fluoro-3′-(methylsulfonyl)biphenyl-4-yl]-1H-imidazol-4-yl}propan-2-ol], the IC50 or EC50 (potency, activation or inhibition) is reported as 1000 to 10000 nM.

`CC(C)c1cccc(-c2ccc(-n3cc(C(C)(C)O)nc3-c3ccccc3Cl)cc2)c1` [Example 388] gave an IC50 or EC50 (potency, activation or inhibition) of 1000 to 10000 nM.

Compound `CC(C)(C)c1ccc(-c2ccc(-n3cc(C(C)(C)O)nc3-c3ccccc3Cl)cc2)cc1` [Example 389, 2-{2-(2-chlorophenyl)-1-[4′-(1,1-dimethylethyl)biphenyl-4-yl]-1H-imidazol-4-yl}propan-2-ol] has an IC50 or EC50 (potency, activation or inhibition) of 1000 to 10000 nM.

`COC(=O)c1cccc(-c2ccc(-n3cc(C(C)(C)O)nc3-c3ccccc3Cl)cc2)c1` [Example 390, methyl 4′-[2-(2-chlorophenyl)-4-(1-hydroxy-1-methylethyl)-1H-imidazol-1-yl]biphenyl-3-carboxylate] gave an IC50 or EC50 (potency, activation or inhibition) of 1000 to 10000 nM.

`CC(C)(O)c1cn(-c2ccc(-c3cccc(NC(=O)c4ccc5c(c4)OCO5)c3)cc2)c(-c2ccccc2Cl)n1` [Example 391, N-{4′-[2-(2-chlorophenyl)-4-(1-hydroxy-1-methylethyl)-1H-imidazol-1-yl]biphenyl-3-yl}-1,3-benzodioxole-5-carboxamide] showed an IC50 or EC50 (potency, activation or inhibition) of 1000 to 10000 nM.

`CC(C)(O)c1cn(-c2ccc(-c3cccc(S(C)(=O)=O)c3)cc2)c(-c2cccc(C(F)(F)F)c2)n1` [Example 392, 2-{1-[3′-(methylsulfonyl)biphenyl-4-yl]-2-[3-(trifluoromethyl)phenyl]-1H-imidazol-4-yl}propan-2-ol] gave an IC50 or EC50 (potency, activation or inhibition) of less than 1000 nM.

With `CC(C)(O)c1cn(-c2ccc(-c3cccc(S(C)(=O)=O)c3)cc2)c(-c2cccc(Cl)c2)n1` [Example 393, 2-{2-(3-chlorophenyl)-1-[3′-(methyl-sulfonyl)biphenyl-4-yl]-1H-imidazol-4-yl}propan-2-ol] the IC50 or EC50 (potency, activation or inhibition) was less than 1000 nM.

For `Cc1cccc(Cl)c1-c1nc(C(C)(C)O)cn1-c1ccc(-c2cccc(S(C)(=O)=O)c2)cc1` [Example 394, 2-{2-(2-chloro-6-methylphenyl)-1-[3′-(methylsulfonyl)biphenyl-4-yl]-1H-imidazol-4-yl}propan-2-ol], the IC50 or EC50 (potency, activation or inhibition) was less than 1000 nM.

`CC(C)(O)c1cn(-c2ccc(-c3cccc(C(=O)O)c3)cc2)c(-c2ccccc2Cl)n1` [Example 395, 4′-[2-(2-chlorophenyl)-4-(1-hydroxy-1-methylethyl)-1H-imidazol-1-yl]biphenyl-3-carboxylic acid] gave an IC50 or EC50 (potency, activation or inhibition) of 1000 to 10000 nM.

In the case of `FC(F)(F)CNC(=S)c1cn(-c2ccc(Br)cc2)c(-c2ccccc2Cl)n1` [Example 396, 1-(4-bromophenyl)-2-(2-chlorophenyl)-N-(2,2,2-trifluoroethyl)-1H-imidazole-4-carbothioamide], the IC50 or EC50 (potency, activation or inhibition) is reported as 1000 to 10000 nM.

`CS(=O)(=O)c1cccc(-c2ccc(-n3cc(C(=O)NCC(F)(F)F)nc3-c3ccccc3Cl)cc2)c1` [Example 397, 2-(2-chlorophenyl)-1-[3′-(methyl-sulfonyl)biphenyl-4-yl]-N-(2,2,2-trifluoroethyl)-1H-imidazole-4-carboxamide] gave an IC50 or EC50 (potency, activation or inhibition) of less than 1000 nM.

For `CS(=O)(=O)c1cccc(-c2ccc(-n3cc(C(=S)NCC(F)(F)F)nc3-c3ccccc3Cl)cc2)c1` [Example 398, 2-(2-chlorophenyl)-1-[3′-(methyl-sulfonyl)biphenyl-4-yl]-N-(2,2,2-trifluoroethyl)-1H-imidazole-4-carbothioamide], the IC50 or EC50 (potency, activation or inhibition) was less than 1000 nM.

In the case of `COc1ccc(-c2ccc(-n3cc(C(C)(C)O)nc3-c3ccccc3C(F)(F)F)cc2)cc1S(C)(=O)=O` [Example 399, 2-{1-[4′-(methyloxy)-3′-(methyl-sulfonyl)biphenyl-4-yl]-2-[2-(trifluoromethyl)phenyl]-1H-imidazol-4-yl}propan-2-ol], the IC50 or EC50 (potency, activation or inhibition) is reported as 1000 to 10000 nM.

With `CC(C)(O)c1cn(-c2ccc(-c3ccc(CO)c(S(C)(=O)=O)c3)cc2)c(-c2ccccc2C(F)(F)F)n1` [Example 400, 2-{1-[4′-(hydroxymethyl)-3′-(methylsulfonyl)biphenyl-4-yl]-2-[2-(trifluoromethyl)phenyl]-1H-imidazol-4-yl}propan-2-ol] the IC50 or EC50 (potency, activation or inhibition) was less than 1000 nM.

For `CCOC(=O)c1cc(-c2ccc(-n3cc(C(C)(C)O)nc3-c3ccccc3C(F)(F)F)cc2)cc(S(C)(=O)=O)c1` [Example 401, ethyl 4′-{4-(1-hydroxy-1-methylethyl)-2-[2-(trifluoro-methyl)phenyl]-1H-imidazol-1-yl}-5-(methylsulfonyl)biphenyl-3-carboxylate], the IC50 or EC50 (potency, activation or inhibition) was 1000 to 10000 nM.

In the case of `CC(C)(O)c1nc(-c2ccccc2C(F)(F)F)n(-c2ccc(-c3cccc(S(C)(=O)=O)c3)cc2)c1Br` [Example 402, 2-{5-bromo-1-[3′-(methyl-sulfonyl)biphenyl-4-yl]-2-[2-(trifluoro-methyl)phenyl]-1H-imidazol-4-yl}propan-2-ol], the IC50 or EC50 (potency, activation or inhibition) is reported as less than 1000 nM.

In the case of `CC(C)(O)c1nc(-c2ccccc2C(F)(F)F)n(-c2ccc(-c3cccc(S(C)(=O)=O)c3)cc2)c1Cl` [Example 403, 2-{5-chloro-1-[3′-(methyl-sulfonyl)biphenyl-4-yl]-2-[2-(trifluoro-methyl)phenyl]-1H-imidazol-4-yl}propan-2-ol], the IC50 or EC50 (potency, activation or inhibition) is reported as less than 1000 nM.

Compound `CC(C)(O)c1cn(-c2ccc(-c3cccc(N)c3)cc2)c(-c2ccccc2Cl)n1` [Example 405, 2-[1-(3′-aminobiphenyl-4-yl)-2-(2-chlorophenyl)-1H-imidazol-4-yl]propan-2-ol] has an IC50 or EC50 (potency, activation or inhibition) of 1000 to 10000 nM.

With `CC(C)(O)c1nc(-c2ccccc2C(F)(F)F)n(-c2ccc(-c3cccc(S(C)(=O)=O)c3)cc2)c1F` [Example 406, 2-{5-fluoro-1-[3′-(methyl-sulfonyl)biphenyl-4-yl]-2-[2-(trifluoro-methyl)phenyl]-1H-imidazol-4-yl}propan-2-ol] the IC50 or EC50 (potency, activation or inhibition) was less than 1000 nM.

Compound `CC(C)(O)c1cn(-c2cccc(-c3ccc(S(C)(=O)=O)cc3)c2)c(-c2ccccc2C(F)(F)F)n1` [Example 407, 2-{1-[4′-(methylsulfonyl)biphenyl-3-yl]-2-[2-(trifluoromethyl)phenyl]-1H-imidazol-4-yl}propan-2-ol] has an IC50 or EC50 (potency, activation or inhibition) of less than 1000 nM.

In the case of `C/C(=N\O)c1cn(-c2ccc(-c3cccc(S(C)(=O)=O)c3)cc2)c(-c2ccccc2Cl)n1` [Example 408, 1-{2-(2-chlorophenyl)-1-[3′-(methylsulfonyl)biphenyl-4-yl]-1H-imidazol-4-yl}ethanone oxime], the IC50 or EC50 (potency, activation or inhibition) is reported as less than 1000 nM.

`CC(C)(O)c1cccc(-c2ccc(-n3cc(C(C)(C)O)nc3-c3ccccc3Cl)cc2)c1` [Example 409, 2-{2-(2-chlorophenyl)-1-[3′-(1-hydroxy-1-methylethyl)biphenyl-4-yl]-1H-imidazol-4-yl}propan-2-ol] was tested, and the IC50 or EC50 (potency, activation or inhibition) was 1000 to 10000 nM.

`CC(C)(O)c1cn(-c2ccc(-c3cccc(S(C)(=O)=O)c3)cc2)c(-c2c(F)cccc2F)n1` [Example 410, 2-{2-(2,6-difluorophenyl)-1-[3′-(methylsulfonyl)biphenyl-4-yl]-1H-imidazol-4-yl}propan-2-ol] showed an IC50 or EC50 (potency, activation or inhibition) of 1000 to 10000 nM.

Work on `CC(=O)c1cn(-c2ccc(-c3cccc(S(C)(=O)=O)c3)cc2)c(-c2ccccc2C(F)(F)F)n1` [Example 411, 1-{1-[3′-(methylsulfonyl)biphenyl-4-yl]-2-[2-(trifluoromethyl)phenyl]-1H-imidazol-4-yl}ethanone] yielded an IC50 or EC50 (potency, activation or inhibition) of less than 1000 nM.

Compound `C/C(=N\O)c1cn(-c2ccc(-c3cccc(S(C)(=O)=O)c3)cc2)c(-c2ccccc2C(F)(F)F)n1` [Example 412, 1-{1-[3′-(methylsulfonyl)biphenyl-4-yl]-2-[2-(trifluoromethyl)phenyl]-1H-imidazol-4-yl}ethanone oxime] has an IC50 or EC50 (potency, activation or inhibition) of less than 1000 nM.

With `CC(C)S(=O)(=O)c1cccc(-c2ccc(-n3cc(C(C)(C)O)nc3-c3ccccc3C(F)(F)F)cc2)c1` [Example 413] the IC50 or EC50 (potency, activation or inhibition) was less than 1000 nM.

Work on `CCS(=O)(=O)c1cccc(-c2ccc(-n3cc(C(C)(C)O)nc3-c3ccccc3Cl)cc2)c1` [Example 415, 2-{2-(2-chlorophenyl)-1-[3′-(ethylsulfonyl)biphenyl-4-yl]-1H-imidazol-4-yl}propan-2-ol] yielded an IC50 or EC50 (potency, activation or inhibition) of 1000 to 10000 nM.

For `CC(C)(O)c1cn(-c2ccc(-c3cccc(S(C)(=O)=O)c3)cc2)c(-c2c(F)cccc2Cl)n1` [Example 416, 2-{2-(2-chloro-6-fluorophenyl)-1-[3′-(methylsulfonyl)biphenyl-4-yl]-1H-imidazol-4-yl}propan-2-ol], the IC50 or EC50 (potency, activation or inhibition) was 1000 to 10000 nM.
